Reference: publication PMC4336331, “Novel Receptor-Derived Cyclopeptides to Treat Heart Failure Caused by Anti-β1-Adrenoceptor Antibodies in a Human-Analogous Rat Model” (PLoS ONE, 2015)
Peptide text beside a SMILES is read from it.

Tests used:
[1] = test system: IL1-β, TGF-β1 transcripts; test: qRT-PCR of cardiac profibrotic markers, therapy-study; format: in vivo, Lewis/CrlBR rats; conditions: qRT-PCR of apical cardiac tissues, normalised to controls (Fig. 3D)
Description: Total RNA was isolated from frozen myocardium by RNeasy mini Kit (Qiagen, Hilden, Germany). Reverse transcription of total RNA isolated from frozen myocardium was performed in 96-well plates utilising a high capacity RNA-to-cDNA master mix (Applied Biosystems, Foster City, CA). PCR reactions were conducted in the presence of the fluorescent dye Sybr-Green (Cambrex BioScience, East Rutherford, NY) and the reference-dye 6-carboxy-X-rhodamine (ROX) using an ABI PRISM sequence detection system 7700 (Applied Biosystems). All amplification products were controlled for specificity by running a melting curve analysis; results were calculated using the 2^-ΔΔCT method. The relative expression levels were derived from a standard curve and normalised to GAPDH as an endogenous control. Quantitative real-time PCR (qRT-PCR) analyses are presented as fold change compared to untreated (0.9% NaCl-injected) control hearts. […]
Fig 3 Histology of rat hearts (therapy-study). […] (B) Quantification of fibrotic scars in midventricular 2μm-sections (mvhs, mid-ventricular heart-section). […] For all parameters shown, differences between the treatment-groups were assessed by […] one way ANOVA and Dunnett`s post-hoc test; *p<0.05; **p<0.001.

[2] = test system: anti-β1EC2-induced heart failure (β1EC2/GST-FP-immunised rats); test: Echocardiography, catheterisation and histomorphology, prevention-study; format: in vivo, Lewis/CrlBR rats; conditions: cardiac catheterisation, histomorphology
Description: (§1) In brief, n = 76 two months old Lewis/CrlBR rats were either s.c. immunised with 50 μg β1EC2/GST-FP, or n = 38 rats were control-injected with 0.9% NaCl (t = 0). To maintain high anti-β1EC2-titers, all immunised rats were boosted with β1EC2/GST-FP (or 0.9% NaCl) every month over 20 months as previously described. Application of the different linear or cyclic β1-AR peptides (corresponding to the primary AA-sequence of either the first (β1EC1) or the 2nd extra-cellular β1-AR loop (β1EC2)) or the β1-receptor blocker bisoprolol was initiated either 6 weeks after the 1st immunisation (i.e. 15 days after the 1st boost, prevention-study), or 8.5 months after the 1st immunisation (therapy-study).
In brief, the rats were lightly anaestetised (30 mg/kg ketamine-HCl and 5 mg/kg xylazine i.p.), shaved (chest), and placed supine on a special table. M-mode tracings were recorded at baseline (before immunisation), and subsequently every four months in the parasternal long and short axis views according to the guidelines of the American Society for Echocardiography. Pulsed-wave Doppler spectra were recorded from the apical five-chamber view and the velocity-time integral (VTI) of the transaortic flow served to calculate cardiac output (CO [ml/min] = Aortic VTI x (π [LV-outflow tract diameter/2]^2) x bpm).

[3] = test system: anti-β1EC2-induced heart failure (β1EC2/GST-FP-immunised rats); test: Relative organ wet weights and body weight, prevention-study; conditions: month 16, mean ±SEM
Description: as §1
After the hearts all other relevant inner organs (e.g., lung, liver, spleen, kidneys, brain, and eyes) were removed, rinsed with ice-cold PBS, weighed, sectioned, and fixed for further histologic analysis.

[4] = test system: cardiac β1-ARs; test: Radioligand binding of cardiac membranes (125I-CYP); format: in vivo, Lewis/CrlBR rats; conditions: 125I-cyanopindolol binding to cardiac membranes, CGP20712A competition (Fig. 4A and B)
Description: Membranes from apical cardiac tissues from rats of each study-group were prepared as previously described. To determine total β-AR density (Bmax), 35μg membrane protein were incubated (1.5 h, 25°C) in binding buffer with 200pM of the non-selective β-AR antagonist ^125I-cyanopindolol (^125I-CYP; Perkin Elmer Life and Analytical Sciences, Billerica, MA). Non-specific binding was determined with 5μM unlabeled L-propranolol. The proportion of β1- and β2-AR subtypes was estimated from biphasic competition-curves with 10^-10 to 10^-2 M of the unlabeled β1-selective antagonist CGP20712A (Sigma). The reaction was stopped by rapid filtration (Whatman GF/C filters) and washing with ice-cold buffer. Filter-bound radioactivity was measured by γ-counting. Estimates of maximal binding (Bmax) and the proportion of β1- and β2-AR-subtypes were calculated with GraphPad Prism 5.00 (San Diego, CA).
Fig 4 Cardiac adrenergic system and molecular markers. […] Columns ± error bars represent the level of expression of the indicated markers ±SEM in cardiac tissues from the indicated treatment-groups compared to values from 0.9% NaCl-injected rats (controls, set at 100%), as determined by qRT-PCR normalised to GAPDH (one way ANOVA and Dunnett`s post-hoc test; *p<0.05; **p<0.001).

[5] = immunised anti-β1EC2-positive rats, from 6 weeks after 1st immunisation EC2-CP 1.0 mg/kg i.v. every 4 weeks or bisoprolol 15 mg/kg/day orally over 12 months
[6] = non-immunised 0.9% NaCl-injected rats, EC2-CP 1.0 mg/kg i.v. every 4 weeks or bisoprolol 15 mg/kg/day orally over 12 months

Row | SMILES | reduction of the increases in cardiac transcripts of profibrotic markers (IL1-β, TGF-β1) [1] [%] | development of cardiomyopathy and heart failure, in words [2] | Heart, relative (wet) weight [3, 5] [mg/g] | Kidney L, relative (wet) weight [3, 5] [mg/g] | Kidney R, relative (wet) weight [3, 5] [mg/g] | Liver, relative (wet) weight [3, 5] [mg/g] | Lung, relative (wet) weight [3, 5] [mg/g] | Spleen, relative (wet) weight [3, 5] [mg/g] | Weight (body weight) [3, 5] [g] | Heart, relative (wet) weight [3, 6] [mg/g] | Kidney L, relative (wet) weight [3, 6] [mg/g] | Kidney R, relative (wet) weight [3, 6] [mg/g] | Liver, relative (wet) weight [3, 6] [mg/g] | Lung, relative (wet) weight [3, 6] [mg/g] | Spleen, relative (wet) weight [3, 6] [mg/g] | Weight (body weight) [3, 6] [g] | cardiac β1-AR density (downregulation), in words [4]
1 | CC(C)NCC(O)COc1ccc(COCCOC(C)C)cc1 (stereo not shown) [bisoprolol, reference compound] | ~50 | able to prevent development of cardiomyopathy and heart failure | 2.55 ± 0.06 | 2.63 ± 0.04 | 2.73 ± 0.07 | 22.63 ± 0.46 | 2.74 ± 0.07 | 1.74 ± 0.05 | 533 ± 27 | 2.50 ± 0.06 | 2.79 ± 0.05 | 2.90 ± 0.07 | 22.33 ± 0.78 | 2.66 ± 0.22 | 1.79 ± 0.05 | 546 ± 8 | small increase
2 | CC(C)[C@@H]1NC(=O)[C@H](Cc2ccccc2)NC(=O)[C@H](CC(=O)O)NC(=O)[C@H](CS)NC(=O)[C@H](CS)NC(=O)[C@H](CCCCN)NC(=O)[C@@H]2CCCN2C(=O)[C@H](CC(=O)O)NC(=O)[C@H](CC(N)=O)NC(=O)[C@H](Cc2ccc(O)cc2)NC(=O)[C@H](CS)NC(=O)[C@H](CCCNC(=N)N)NC(=O)[C@H](CCCNC(=N)N)NC(=O)[C@H](C)NC(=O)[C@H](CCC(=O)O)NC(=O)[C@H](CC(=O)O)NC(=O)[C@H](CO)NC(=O)[C@H](CCC(=O)O)NC(=O)[C@H](C)NC(=O)[C@H](CCCNC(=N)N)NC(=O)[C@H](C)NC(=O)[C@H](CCC(N)=O)NC(=O)CNC(=O)[C@H](CCCNC(=N)N)NC(=O)[C@H](CC(N)=O)NC(=O)[C@H]([C@@H](C)O)NC1=O [β1EC2-CP] (cyclo(AESDEARRCYNDPKCCDFVTNRGQAR)) | ~50 | able to prevent development of cardiomyopathy and heart failure | 2.46 ± 0.05 | 2.71 ± 0.08 | 2.79 ± 0.06 | 23.59 ± 0.46 | 2.74 ± 0.14 | 1.48 ± 0.05 | 543 ± 24 | 2.50 ± 0.06 | 2.62 ± 0.08 | 2.79 ± 0.01 | 22.51 ± 0.20 | 2.77 ± 0.10 | 1.58 ± 0.15 | 553 ± 11 | largely prevented
